# Assay results taken from US5407918A, “16-membered macrolide derivatives and process for producing the same” (Meiji Seika Kaisha, Ltd., priority 1992, dated 1995).
# Read-outs that look alike come from different tables or passages of the source.
# Tests used:
# [1] = tested on: test strains; experiment: antimicrobial activity in vitro, comparison in words; format: cell-based; conditions: data are not shown
# Description: (§1) Antimicrobial activities of the compounds of the present invention were determined by measuring minimum inhibitory concentration (MIC). Minimum inhibitory concentration was determined by the agar plate dilution method in the following manner.
# (§2) Test strains were subjected to seed culture using Sensitivity test broth (STB, Nissui Pharmaceutical) except that the strains belonging to the genus Streptococcus, Branhamella and Haemophilus were cultured on blood agar plate. A 5 μl portion of cell suspension of the test strains having about 10^6 CFU/ml was inoculated into Sensitivity disk agar (SDA, Nissui Pharmaceutical) supplemented with 5% horse blood and incubated at 37° C. for 20 hours. Then, MIC was measured. For comparison, MDM and leucomycin A7 (LM-A7) was also tested.
# [2] = concentration in serum after oral administration to mice, bioassay; format: in vivo, mice (Jcl:ICR)
# Description: The compound (3) was mixed with a 0.2% solution of carboxymethylcellulose to give a concentration of 4 mg/ml and a 1 ml portion of the resulting emulsion was orally administered to 4-week-old male Jcl:ICR mice. Blood was collected from armpit of the mice 30, 60, 120, 240 and 360 minutes after the administration of the test compound (n=2). The collected blood was allowed to stand at room temperature for about 2 hours and centrifuged for 20 minutes with a centrifuge (KUBOTA KS-5000P) to obtain serum. To the serum was added an equivalent volume of 50% CH3 CN-50 mM phosphate (1:1 by volume) buffer (pH 7.0). The resulting mixture served as a serum sample. The concentration of the test compound in the serum sample was measured by the following bioassay method.
# One hundred […] of the serum sample was poured into a hole made on a test plate containing 40 ml of MRAPJ medium (6 g/l peptone, 3 g/l yeast extract, 1.5 g/l meat extract, 1 g/l glucose and 15 g/l agar, pH 6.5) supplemented with a solution of M. Iuteus ATCC9341 (1%) and incubated at 32° C. for 18 hours and MIC was measured based on the calibration curve. MOM, MDM and RKM were also tested for comparison. […] Thus a long-pending problem of "low concentration in serum" of 16-membered macrolide antibiotics has been solved. […] Thus this compound is considered as a macrolide derivative showing new pharmacokinetics.
# Further, a pharmacokinetics test on the compound (12) of the present invention is carried out in the same manner as described above. Namely, 200 mg/kg of the compound (12) is orally administered to mice and the concentration of this compound in the serum is determined by a bioassay method with the use of M. luteus as a test strain. […] The disadvantage of 16-membered ring macrolide antibiotics, which has been pointed out for a long time, has been thus overcome.
# [3] = tested on: B. catarrhalis W-0500; experiment: MIC, agar plate dilution method; format: cell-based; conditions: Moraxella catarrhalis, W0500, 37° C., 20 hours, read-out: Antimicrobial activity (MIC)
# Description: as §1, §2
# [4] = tested on: B. catarrhalis W-0506; experiment: MIC, agar plate dilution method; format: cell-based; conditions: Moraxella catarrhalis, W0506, 37° C., 20 hours, read-out: Antimicrobial activity (MIC)
# Description: as §1, §2
# [5] = tested on: E. coli NIHJ JC-2; experiment: MIC, agar plate dilution method; format: cell-based; conditions: Escherichia coli, NIHJJC2; E. coli NIHJ JC-2; 37° C., 20 hours; read-out: Antimicrobial activity (MIC)
# Description: as §1, §2
# [6] = tested on: E. faecalis W-73; experiment: MIC, agar plate dilution method; format: cell-based; conditions: Enterococcus faecalis, W73; E. faecalis W-73; 37° C., 20 hours; read-out: Antimicrobial activity (MIC)
# Description: as §1, §2
# [7] = tested on: H. influenzae 9334; experiment: MIC, agar plate dilution method; format: cell-based; conditions: Haemophilus influenzae; H. influenzae 9334; 37° C., 20 hours; read-out: Antimicrobial activity (MIC)
# Description: as §1, §2
# [8] = tested on: H. influenzae Type b; experiment: MIC, agar plate dilution method; format: cell-based; conditions: Haemophilus influenzae, read-out: Antimicrobial activity (MIC)
# Description: as §1, §2
# [9] = tested on: K. pneumoniae PC1602; experiment: MIC, agar plate dilution method; format: cell-based; conditions: Klebsiella pneumoniae, 37° C., 20 hours, read-out: Antimicrobial activity (MIC)
# Description: as §1, §2
# [10] = tested on: M. luteus ATCC9341; experiment: MIC, agar plate dilution method; format: cell-based; conditions: Micrococcus luteus; M. luteus ATCC9341; 37° C., 20 hours; read-out: Antimicrobial activity (MIC)
# Description: as §1, §2
# [11] = tested on: S. Pneumoniae Type 1; experiment: MIC, agar plate dilution method; format: cell-based; conditions: Streptococcus pneumoniae; S. Pneumoniae Type 1; 37° C., 20 hours; read-out: Antimicrobial activity (MIC)
# Description: as §1, §2
# [12] = tested on: S. Pyogenes Cook; experiment: MIC, agar plate dilution method; format: cell-based; conditions: Streptococcus pyogenes, 37° C., 20 hours, read-out: Antimicrobial activity (MIC)
# Description: as §1, §2
# [13] = tested on: S. aureus 209P JC-1; experiment: MIC, agar plate dilution method; format: cell-based; conditions: Staphylococcus aureus, read-out: Antimicrobial activity (MIC)
# Description: as §1, §2
# [14] = tested on: S. aureus M126; experiment: MIC, agar plate dilution method; format: cell-based; conditions: Staphylococcus aureus, read-out: Antimicrobial activity (MIC)
# Description: as §1, §2
# [15] = tested on: S. aureus M133; experiment: MIC, agar plate dilution method; format: cell-based; conditions: Staphylococcus aureus, 37° C., 20 hours, read-out: Antimicrobial activity (MIC)
# Description: as §1, §2
# [16] = tested on: S. aureus MS15009/pMS98; experiment: MIC, agar plate dilution method; format: cell-based; conditions: Staphylococcus aureus, MS15009/PMS98, 20 h, read-out: Antimicrobial activity (MIC)
# Description: as §1, §2
# [17] = tested on: S. aureus MS15009/pMS99; experiment: MIC, agar plate dilution method; format: cell-based; conditions: Staphylococcus aureus, MS15009/PMS99, 20 h, read-out: Antimicrobial activity (MIC)
# Description: as §1, §2
# [18] = tested on: S. aureus MS15026; experiment: MIC, agar plate dilution method; format: cell-based; conditions: Staphylococcus aureus, 37° C., 20 hours, read-out: Antimicrobial activity (MIC)
# Description: as §1, §2
# [19] = tested on: S. aureus MS15027; experiment: MIC, agar plate dilution method; format: cell-based; conditions: Staphylococcus aureus, 37° C., 20 hours, read-out: Antimicrobial activity (MIC)
# Description: as §1, §2
# [20] = tested on: S. epidermidis ATCC14990; experiment: MIC, agar plate dilution method; format: cell-based; conditions: Staphylococcus epidermidis, 37° C., 20 hours, read-out: Antimicrobial activity (MIC)
# Description: as §1, §2
# [21] = tested on: S. pneumoniae IP692; experiment: MIC, agar plate dilution method; format: cell-based; conditions: Streptococcus pneumoniae; S. pneumoniae IP692; 37° C., 20 hours; read-out: Antimicrobial activity (MIC)
# Description: as §1, §2
# [22] = tested on: Gram-positive bacteria; experiment: antimicrobial activity in vitro (summary in words); format: cell-based; conditions: from Tables 2 and 3
# Description: as §1, §2
# [23] = S. aureus 209P JC-1, 37° C., 20 hours
# [24] = S. aureus M126, 37° C., 20 hours
# [25] = H. influenzae Type b, 37° C., 20 hours
SMILES,MIC [3],MIC [4],MIC [5],MIC [6],MIC [7],MIC ([8]; 20 h),MIC [9],MIC [10],MIC [11],MIC [12],"MIC [13, 23]","MIC [14, 24]",MIC [15],MIC [16],MIC [17],MIC [18],MIC [19],MIC [20],MIC [21],antimicrobial activity on Gram-positive bacteria [22],further results
CCC(=O)O[C@@H]1CC(=O)O[C@H](C)C/C=C/C=C/[C@H](OC(C)=O)[C@H](C)C[C@H](CC=O)[C@H](O[C@@H]2O[C@H](C)[C@@H](O[C@H]3C[C@@](C)(OC)[C@@H](OCCC(C)C)[C@H](C)O3)[C@H](N(C)C)[C@H]2O)[C@H]1OC [(4)],,,,,,,,,,,,,,,,,,,,,"antimicrobial activity compared with compound (3) [1]: almost comparable to that of the compound (3); concentration in the serum (in words) [2]: sustains a high concentration in the serum; maximum concentration in the serum compared with compound (3) [2]: exceeds even that of the compound (3); concentration in the serum 6 hours after the administration, % of the maximum level ([2]; 6 hours): more than 80%; Tmax ([2]; mouse, serum, after the administration, read-out: time of maximum concentration in the serum): ~2 h"
CCCO[C@H]1[C@H](C)O[C@@H](O[C@H]2[C@H](N(C)C)[C@@H](O)[C@H](O[C@H]3[C@@H](CC=O)C[C@@H](C)[C@@H](O)/C=C/C=C/C[C@@H](C)OC(=O)C[C@@H](O)[C@@H]3OC)O[C@@H]2C)C[C@@]1(C)OC [(9)],1.56 µg/mL,3.13 µg/mL,> 100 µg/mL,0.78 µg/mL,6.25 µg/mL,12.5 µg/mL,> 100 µg/mL,0.05 µg/mL,0.2 µg/mL,0.1 µg/mL,0.2 µg/mL,> 100 µg/mL,0.39 µg/mL,0.39 µg/mL,> 100 µg/mL,> 100 µg/mL,0.39 µg/mL,0.39 µg/mL,0.2 µg/mL,strong antimicrobial activity,
CO[C@@H]1[C@@H](O[C@@H]2O[C@H](C)[C@@H](O[C@H]3C[C@@](C)(OC)[C@@H](OCCC(C)C)[C@H](C)O3)[C@H](N(C)C)[C@H]2O)[C@@H](CC=O)C[C@@H](C)[C@@H](OC(C)=O)/C=C/C=C/C[C@@H](C)OC(=O)C[C@H]1O [(13)],,,,,,,,,,,,,,,,,,,,,antimicrobial activity compared with compound (12) [1]: comparable in the antimicrobial activity to the compound (12)
CCO[C@]1(C)C[C@H](O[C@H]2[C@H](N(C)C)[C@@H](O)[C@H](O[C@H]3[C@@H](CC=O)C[C@@H](C)[C@@H](O)/C=C/C=C/C[C@@H](C)OC(=O)C[C@@H](O)[C@@H]3OC)O[C@@H]2C)O[C@@H](C)[C@@H]1OCCC(C)C [(14)],0.39 µg/mL,0.78 µg/mL,> 100 µg/mL,0.78 µg/mL,6.25 µg/mL,,> 100 µg/mL,0.05 µg/mL,0.2 µg/mL,0.1 µg/mL,0.2 µg/mL,> 100 µg/mL,0.78 µg/mL,0.39 µg/mL,> 100 µg/mL,> 100 µg/mL,0.39 µg/mL,0.78 µg/mL,0.2 µg/mL,strong antimicrobial activity,"MIC [8, 25]: 12.5 µg/mL"
CCCO[C@]1(C)C[C@H](O[C@H]2[C@H](N(C)C)[C@@H](O)[C@H](O[C@H]3[C@@H](CC=O)C[C@@H](C)[C@@H](O)/C=C/C=C/C[C@@H](C)OC(=O)C[C@@H](O)[C@@H]3OC)O[C@@H]2C)O[C@@H](C)[C@@H]1OCCC(C)C [(15)],0.78 µg/mL,0.78 µg/mL,> 100 µg/mL,0.78 µg/mL,6.25 µg/mL,50 µg/mL,> 100 µg/mL,0.1 µg/mL,0.2 µg/mL,0.1 µg/mL,0.2 µg/mL,> 100 µg/mL,0.78 µg/mL,0.39 µg/mL,> 100 µg/mL,> 100 µg/mL,0.39 µg/mL,0.78 µg/mL,0.2 µg/mL,strong antimicrobial activity,
"CCC(=O)O[C@H]1[C@H](C)O[C@@H](O[C@H]2[C@H](N(C)C)[C@@H](O)[C@H](O[C@H]3[C@@H](CC=O)C[C@@H](C)[C@@H](O)/C=C/C=C/C[C@@H](C)OC(=O)C[C@@H](O)[C@@H]3OC)O[C@@H]2C)C[C@@]1(C)O [LM-A7, leucomycin A7, reference compound]",0.78 µg/mL,1.56 µg/mL,> 100 µg/mL,0.78 µg/mL,0.78 µg/mL,,> 100 µg/mL,0.05 µg/mL,0.2 µg/mL,0.1 µg/mL,,,0.39 µg/mL,0.39 µg/mL,> 100 µg/mL,> 100 µg/mL,0.39 µg/mL,0.39 µg/mL,0.2 µg/mL,,"MIC [8, 25]: 6.25 µg/mL; MIC ([13]; 209P, 20 h): 0.2 µg/mL; MIC ([14]; M126, 20 h): > 100 µg/mL"
